Data set [1] concerns the target T1, Amine oxidase [flavin-containing] A (Homo sapiens, UniProt P21397).
T1 sequence (P21397 whole entry): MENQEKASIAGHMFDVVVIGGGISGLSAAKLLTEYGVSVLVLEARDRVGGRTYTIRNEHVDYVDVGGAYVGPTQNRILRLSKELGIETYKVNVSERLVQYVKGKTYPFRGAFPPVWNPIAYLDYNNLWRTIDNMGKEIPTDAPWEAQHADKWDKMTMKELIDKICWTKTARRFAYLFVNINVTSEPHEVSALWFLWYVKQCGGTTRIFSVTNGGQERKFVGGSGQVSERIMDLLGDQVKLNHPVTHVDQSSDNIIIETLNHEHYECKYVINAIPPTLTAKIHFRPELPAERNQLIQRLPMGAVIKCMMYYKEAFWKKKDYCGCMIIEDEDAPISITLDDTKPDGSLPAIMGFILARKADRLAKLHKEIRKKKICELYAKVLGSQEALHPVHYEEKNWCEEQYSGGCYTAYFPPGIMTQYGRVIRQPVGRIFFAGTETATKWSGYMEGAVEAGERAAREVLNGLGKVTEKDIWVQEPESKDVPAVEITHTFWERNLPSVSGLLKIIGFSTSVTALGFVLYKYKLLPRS
Briefly: Inhibition of recombinant human MAO-A.

Data set [2] in a line: Effect on tau protein level in mouse HT22 cells transfected with pRK5-GFP-Tau plasmid assessed as fluorescence intensity at 20 uM by fluorescence microscopy (Rvb <= 40.9). Type of data set: functional, HT-22.
Data set [3] in a line: Toxicity in AlCl3-induced Zebrafish model of Alzheimer's disease assessed as mortality at 1 ug/ml relative to control. On the set-up: species or system Danio rerio. The note with it: in vivo, at 1 µg/mL.

As for `CCN(C)C(=O)Oc1ccc(/C=C/C(=O)N2CCc3ccccc3C2)cc1OC`, in data set [1], the IC50 turned out to be 15.9 µM. For the same compound, the Flu intensity in data set [2] stood at 29.2. In data set [3], the mortality at 1 ug/ml came out at 0%.

Broadly, the IC50 is the concentration needed to halve the response being measured. What is called mortality is the percentage killed.

Source of the values: ChEMBL document CHEMBL4680246, “Design, synthesis and biological evaluation of novel O-carbamoyl ferulamide derivatives as multi-target-directed ligands for the treatment of Alzheimer's disease” (Eur J Med Chem, 2020).
